Measurements from patent US9725465B2, “Biaryl acetamide compounds and methods of use thereof” (Ambit Biosciences Corporation, priority 2013, dated 2017).

Legend:
[1] = molecular target: FLT3 kinase (Homo sapiens (Human), UniProt P36888); assay: Competition binding assay (Kd), FLT3; settings: competition binding
Description: A selectivity score (S35) is a quantitative measure of selectivity of a compound against a panel of kinases. […] Percent of control (POC) is calculated by subtracting the signal of the control compound (POC=0) from the signal of the test compound and dividing the outcome by the signal of DMSO (POC=100) minus the signal of the control compound.

[2] = molecular target: KIT kinase (Homo sapiens (Human), UniProt P10721); assay: Competition binding assay (Kd), KIT; settings: competition binding
Description: In certain embodiments, competition binding assays were performed as described in Fabian et al., Nature Biotechnology 2005, 23, 329-336.
Competition binding assays used herein were developed, validated and performed as described in Fabian et al., Nature Biotechnology 2005, 23, 329-336. Kinases were produced as fusions to T7 phage (See, Fabian et al. or WO04/015142) or alternatively, the kinases were expressed in HEK-293 cells and subsequently tagged with DNA for PCR detection (See, WO08/005,310). […] The liganded beads were blocked with excess biotin and washed with blocking buffer (SeaBlock (Pierce), 1% BSA, 0.05% Tween 20, 1 mM DTT) to remove unbound ligand and to reduce non-specific binding. […] Test compounds were prepared as 100× stocks in DMSO and diluted into the aqueous environment. Kds were determined using an eleven point threefold serial dilutions. DMSO or control compounds were was added to control assays lacking a test compound. […] The kinase concentration in the eluates was measured by quantitative PCR. […]

KIT kinase, sequence (P10721 26-976): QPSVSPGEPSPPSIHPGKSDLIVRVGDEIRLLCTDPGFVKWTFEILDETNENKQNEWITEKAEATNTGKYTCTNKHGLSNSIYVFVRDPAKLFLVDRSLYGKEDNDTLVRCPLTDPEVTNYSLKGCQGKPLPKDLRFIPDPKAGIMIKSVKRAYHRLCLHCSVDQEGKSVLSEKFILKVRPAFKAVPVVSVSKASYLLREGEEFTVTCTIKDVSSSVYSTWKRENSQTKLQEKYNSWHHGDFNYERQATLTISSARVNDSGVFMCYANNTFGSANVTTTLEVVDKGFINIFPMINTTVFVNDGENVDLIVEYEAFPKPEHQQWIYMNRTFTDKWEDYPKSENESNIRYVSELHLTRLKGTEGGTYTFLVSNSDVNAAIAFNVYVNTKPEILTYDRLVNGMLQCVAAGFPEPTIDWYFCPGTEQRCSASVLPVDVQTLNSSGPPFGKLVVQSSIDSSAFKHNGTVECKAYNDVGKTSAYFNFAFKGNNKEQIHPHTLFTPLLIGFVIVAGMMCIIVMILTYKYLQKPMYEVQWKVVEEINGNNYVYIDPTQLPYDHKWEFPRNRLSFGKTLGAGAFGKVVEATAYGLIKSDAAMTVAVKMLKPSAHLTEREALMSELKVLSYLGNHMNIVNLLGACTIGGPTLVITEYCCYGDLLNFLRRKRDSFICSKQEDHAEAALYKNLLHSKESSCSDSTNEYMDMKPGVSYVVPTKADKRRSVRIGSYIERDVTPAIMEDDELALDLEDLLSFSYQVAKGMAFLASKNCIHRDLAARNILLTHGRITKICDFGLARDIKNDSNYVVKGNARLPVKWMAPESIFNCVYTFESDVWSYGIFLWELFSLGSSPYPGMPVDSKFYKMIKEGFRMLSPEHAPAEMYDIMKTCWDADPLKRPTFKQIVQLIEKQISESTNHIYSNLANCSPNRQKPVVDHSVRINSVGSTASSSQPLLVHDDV
FLT3 kinase, sequence (P36888 27-993): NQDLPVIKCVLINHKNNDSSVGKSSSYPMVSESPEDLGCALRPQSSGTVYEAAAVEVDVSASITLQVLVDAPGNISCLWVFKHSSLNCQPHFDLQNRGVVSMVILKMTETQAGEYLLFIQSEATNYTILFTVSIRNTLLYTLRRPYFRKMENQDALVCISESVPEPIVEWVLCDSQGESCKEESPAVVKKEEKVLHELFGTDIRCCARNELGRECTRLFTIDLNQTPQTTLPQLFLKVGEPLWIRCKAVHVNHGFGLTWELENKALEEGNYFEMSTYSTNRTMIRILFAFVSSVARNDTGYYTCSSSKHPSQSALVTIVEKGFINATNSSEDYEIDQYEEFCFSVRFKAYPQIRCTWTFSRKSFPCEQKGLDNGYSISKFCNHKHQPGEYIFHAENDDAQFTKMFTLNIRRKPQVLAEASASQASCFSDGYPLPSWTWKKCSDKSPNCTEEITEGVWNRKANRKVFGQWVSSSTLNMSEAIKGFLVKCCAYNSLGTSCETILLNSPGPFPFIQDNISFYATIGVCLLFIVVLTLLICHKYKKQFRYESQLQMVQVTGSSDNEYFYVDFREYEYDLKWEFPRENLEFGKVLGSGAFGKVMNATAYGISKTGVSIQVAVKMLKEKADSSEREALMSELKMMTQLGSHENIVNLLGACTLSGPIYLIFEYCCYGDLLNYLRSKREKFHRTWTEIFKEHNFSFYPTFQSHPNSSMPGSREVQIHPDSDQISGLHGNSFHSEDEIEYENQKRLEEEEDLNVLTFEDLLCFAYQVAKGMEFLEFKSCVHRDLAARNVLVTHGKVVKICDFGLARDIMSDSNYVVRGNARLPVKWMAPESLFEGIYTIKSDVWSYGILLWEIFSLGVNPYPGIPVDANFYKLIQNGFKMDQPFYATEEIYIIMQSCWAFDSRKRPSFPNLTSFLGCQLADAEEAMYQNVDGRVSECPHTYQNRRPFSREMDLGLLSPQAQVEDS

SMILES	Kd [1]	Kd [2]
COc1cc2cc(-c3ccc(CC(=O)Nc4cc(C(C)(C)C(F)(F)F)on4)c(F)c3)cnc2cc1OCCN1CC[C@@H](O)C1 [Example 199, 2-[2-fluoro-4-[7-[2-[(3R)-3-hydroxypyrrolidin-1-yl]ethoxy]-6-methoxy-3-quinolyl]phenyl]-N-[5-(2,2,2-trifluoro-1,1-dimethyl-ethyl)isoxazol-3-yl]acetamide]	< 5 nM	< 5 nM
COc1cc2cc(-c3ccc(CC(=O)Nc4cc(C(C)(C)C(F)(F)F)on4)c(F)c3)cnc2cc1OCCN(C)CCO [Example 200, 2-[2-fluoro-4-[7-[2-[2-hydroxy-ethyl(methyl)amino]ethoxy]-6-methoxy-3-quinolyl]phenyl]-N-[5-(2,2,2-trifluoro-1,1-dimethyl-ethyl)isoxazol-3-yl]acetamide]	< 5 nM	< 5 nM
COc1cc2cc(-c3ccc(CC(=O)Nc4cc(C(C)(C)C(F)(F)F)on4)c(F)c3)cnc2cc1OCCNCCO [Example 201, 2-[2-fluoro-4-[7-[2-(2-hydroxyethylamino)ethoxy]-6-methoxy-3-quinolyl]phenyl]-N-[5-(2,2,2-trifluoro-1,1-dimethyl-ethyl)isoxazol-3-yl]acetamide]	< 5 nM	< 5 nM
COc1cc2ncc(-c3ccc(CC(=O)Nc4cc(C5(C(F)(F)F)CC5)on4)c(F)c3)nc2cc1OC[C@@H](C)O [Example 202, 2-[2-fluoro-4-[7-[(2R)-2-hydroxypropoxy]-6-methoxy-quinoxalin-2-yl]phenyl]-N-[5-[1-(trifluoromethyl)cyclo-propyl]isoxazol-3-yl]acetamide]	< 5 nM	< 5 nM
COc1cc2ncc(-c3ccc(CC(=O)Nc4cc(C(C)(C)C(F)(F)F)on4)c(F)c3)nc2cc1OCCCN1CCOCC1 [Example 203, 2-[2-fluoro-4-[6-methoxy-7-(3-morpholino-propoxy)quinoxalin-2-yl]phenyl]-N-[5-(2,2,2-trifluoro-1,1-dimethyl-ethyl)isoxazol-3-yl]acetamide]	< 5 nM	< 5 nM
COc1cc2ncc(-c3ccc(CC(=O)Nc4cc(C(C)(C)C(F)(F)F)on4)c(F)c3)cc2cc1OCCN [Example 204, 2-[4-[6-(2-aminoethoxy)-7-methoxy-3-quinolyl]-2-fluoro-phenyl]-N-[5-(2,2,2-trifluoro-1,1-dimethyl-ethyl)isoxazol-3-yl]acetamide]	< 5 nM	< 5 nM
COc1cc2ncc(-c3ccc(CC(=O)Nc4cc(C(C)(C)C(F)(F)F)on4)c(F)c3)cc2cc1OCCNC(C)=O [Example 205, 2-[4-[6-(2-acetamidoethoxy)-7-methoxy-3-quinolyl]-2-fluoro-phenyl]-N-[5-(2,2,2-trifluoro-1,1-dimethyl-ethyl)isoxazol-3-yl]acetamide]	< 5 nM	< 5 nM
COc1cc2ncc(-c3ccc(CC(=O)Nc4cc(C(C)(C)C(F)(F)F)on4)c(F)c3)cc2cc1OCCN1CCC(O)CC1 [Example 206, 2-[2-fluoro-4-[6-[2-(4-hydroxy-1-piperidyl)ethoxy]-7-methoxy-3-quinolyl]phenyl]-N-[5-(2,2,2-trifluoro-1,1-dimethyl-ethyl)isoxazol-3-yl]acetamide]	< 5 nM	< 5 nM
COc1cc2ncc(-c3ccc(CC(=O)Nc4cc(C(C)(C)C(F)(F)F)on4)c(F)c3)cc2cc1OCCN1CCC(F)(F)CC1 [Example 207, 2-[4-[6-[2-(4,4-difluoro-1-piperidyl)ethoxy]-7-methoxy-3-quinolyl]-2-fluoro-phenyl]-N-[5-(2,2,2-trifluoro-1,1-dimethyl-ethyl)isoxazol-3-yl]acetamide]	< 5 nM	20 to 50 nM
COc1cc2nc(-c3ccc(CC(=O)Nc4cc(C5(C(F)(F)F)CC5)on4)c(F)c3)cnc2cc1OC[C@@H](C)O [Example 208, 2-[2-fluoro-4-[6-[(2R)-2-hydroxypropoxy]-7-methoxy-quinoxalin-2-yl]phenyl]-N-[5-[1-(trifluoro-methyl)cyclopropyl]isoxazol-3-yl]acetamide]	< 5 nM	< 5 nM
COc1cc2nc(-c3ccc(CC(=O)Nc4cc(C(C)(C)C(F)(F)F)on4)c(F)c3)cnc2cc1OCCCN1CCOCC1 [Example 209, 2-[2-fluoro-4-[7-methoxy-6-(3-morpholino-propoxy)quinoxalin-2-yl]phenyl]-N-[5-(2,2,2-trifluoro-1,1-dimethyl-ethyl)isoxazol-3-yl]acetamide]	< 5 nM	< 5 nM
COc1cc2nc(-c3ccc(CC(=O)Nc4cc(C(C)(C)C(F)(F)F)on4)c(F)c3)cnc2cc1OCCn1cncn1 [Example 210, 2-[2-fluoro-4-[7-methoxy-6-[2-(1,2,4-triazol-1-yl)ethoxy]quinoxalin-2-yl]phenyl]-N-[5-(2,2,2-trifluoro-1,1-dimethyl-ethyl)isoxazol-3-yl]acetamide]	< 5 nM	< 5 nM
COc1cc2nc(-c3ccc(CC(=O)Nc4cc(C(C)(C)C(F)(F)F)on4)c(F)c3)cnc2cc1OCCn1cnnc1 [Example 211, 2-[2-fluoro-4-[7-methoxy-6-[2-(1,2,4-triazol-4-yl)ethoxy]quinoxalin-2-yl]phenyl]-N-[5-(2,2,2-trifluoro-1,1-dimethyl-ethyl)isoxazol-3-yl]acetamide]	< 5 nM	< 5 nM
COc1cc2nc(-c3ccc(CC(=O)Nc4cc(C5(C(F)(F)F)CC5)on4)c(F)c3)cnc2cc1OCCCN1CCOCC1 [Example 212, 2-[2-fluoro-4-[7-methoxy-6-(3-morpholino-propoxy)quinoxalin-2-yl]phenyl]-N-[5-[1-(trifluoro-methyl)cyclopropyl]isoxazol-3-yl]acetamide]	< 5 nM	< 5 nM
COc1cc2ncc(-c3ccc(CC(=O)Nc4cc(C5(C(F)(F)F)CC5)on4)c(F)c3)nc2cc1OCCCN1CCOCC1 [Example 213, 2-[2-fluoro-4-[6-methoxy-7-(3-morpholino-propoxy)quinoxalin-2-yl]phenyl]-N-[5-[1-(trifluoro-methyl)cyclopropyl]isoxazol-3-yl]acetamide]	< 5 nM	< 5 nM
COc1cc2ncc(-c3ccc(CC(=O)Nc4cc(C5(C(F)(F)F)CC5)on4)c(F)c3)nc2cc1OCCCNC(C)=O [Example 214, 2-[4-[7-(3-acetamidopropoxy)-6-methoxy-quinoxalin-2-yl]-2-fluoro-phenyl]-N-[5-[1-(trifluoromethyl)cyclo-propyl]isoxazol-3-yl]acetamide]	< 5 nM	< 5 nM
COc1cc2nc(-c3ccc(CC(=O)Nc4cc(C(C)(C)C)on4)cc3)cnc2cc1OCCN1CCOCC1 [Example 215, N-(5-tert-butylisoxazol-3-yl)-2-[4-[7-methoxy-6-(2-morpholino-ethoxy)quinoxalin-2-yl]phenyl]acetamide]	< 5 nM	< 5 nM
COc1cc2nc(-c3ccc(CC(=O)Nc4cc(C5(C(F)(F)F)CC5)on4)c(F)c3)cnc2cc1OCCN1CCS(=O)(=O)CC1 [Example 216, 2-[4-[6-[2-(1,1-dioxo-1,4-thiazinan-4-yl)ethoxy]-7-methoxy-quinoxalin-2-yl]-2-fluoro-phenyl]-N-[5-[1-(trifluoromethyl)cyclo-propyl]isoxazol-3-yl]acetamide]	< 5 nM	< 5 nM
COc1cc2ncc(-c3ccc(CC(=O)Nc4cc(C(C)(C)C(F)(F)F)on4)cc3F)nc2cc1OC [Example 217, 2-[4-(6,7-dimethoxyquinoxalin-2-yl)-3-fluoro-phenyl]-N-[5-(2,2,2-trifluoro-1,1-dimethyl-ethyl)isoxazol-3-yl]acetamide]	< 5 nM	< 5 nM
COc1cc2ncc(-c3cc(F)c(CC(=O)Nc4cc(C5(C(F)(F)F)CC5)on4)cc3F)nc2cc1OC [Example 218, 2-[4-(6,7-dimethoxyquinoxalin-2-yl)-2,5-difluoro-phenyl]-N-[5-[1-(trifluoro-methyl)cyclopropyl]isoxazol-3-yl]acetamide]	< 5 nM	< 5 nM
COc1cc2ncc(-c3cc(F)c(CC(=O)Nc4cc(C(C)(C)C(F)(F)F)on4)cc3F)nc2cc1OC [Example 219, 2-[4-(6,7-dimethoxyquinoxalin-2-yl)-2,5-difluoro-phenyl]-N-[5-(2,2,2-trifluoro-1,1-dimethyl-ethyl)isoxazol-3-yl]acetamide]	< 5 nM	< 5 nM
CC(=O)NCCOc1cc2ncc(-c3ccc(CC(=O)Nc4cc(C(C)(C)C(F)(F)F)on4)c(F)c3)nc2cc1OCCNC(C)=O [Example 220, 2-[4-[6,7-bis(2-acetamidoethoxy)quinoxalin-2-yl]-2-fluoro-phenyl]-N-[5-(2,2,2-trifluoro-1,1-dimethyl-ethyl)isoxazol-3-yl]acetamide]	< 5 nM	< 5 nM
CC(=O)N(C)CCOc1cc2ncc(-c3ccc(CC(=O)Nc4cc(C(C)(C)C(F)(F)F)on4)c(F)c3)nc2cc1OCCN(C)C(C)=O [Example 221, 2-[4-[6,7-bis[2-[acetyl(methyl)amino]ethoxy]quinoxalin-2-yl]-2-fluoro-phenyl]-N-[5-(2,2,2-trifluoro-1,1-dimethyl-ethyl)isoxazol-3-yl]acetamide]	< 5 nM	< 5 nM
COc1cc2nc(-c3ccc(CC(=O)Nc4cc(C5(C(F)(F)F)CC5)on4)c(F)c3)cnc2cc1OCCCS(C)(=O)=O [Example 222, 2-[2-fluoro-4-[7-methoxy-6-(3-methylsulfonyl-propoxy)quinoxalin-2-yl]phenyl]-N-[5-[1-(trifluoromethyl)cyclo-propyl]isoxazol-3-yl]acetamide]	< 5 nM	< 5 nM
